We go through three molecules from patent US20140371162A1, “COMBINATION THERAPY COMPRISING SGLT INHIBITORS AND DPP4 INHIBITORS” (MITSUBISHI TANABE PHARMA CORPORATION, priority 2008, published 2014).

Experiment [1] relates to plasma active GLP-1 level. Briefly: Plasma active GLP-1 level in glucose-loaded diabetic mice. The experiment is classed as in vivo. Particulars: male db/db mice, mean ± SEM, n=8. The procedure: Male BKS.Cg−+Lepr^db/+Lepr^db/Jcl mice; an Animal Model of Type 2 Diabetes (Purchased from CLEA Japan, Inc.)
Each test compound was suspended in a solution of 0.5% carboxymethyl cellulose containing 0.2% Tween 80 at the doses indicated in Table 3, and administered to the test group orally at a volume of 5 mL/kg. The vehicle control group was orally administered a solution of 0.5% carboxymethyl cellulose containing 0.2% Tween 80 at a volume of 5 mL/kg. Just after the administration of the compound or vehicle, a glucose solution (2 g/kg/5 mL) was given orally.
Blood was collected from the caudal vein of an unanesthetized mice just before and 0.5, 1, and 2 hours after glucose loading. Plasma active GLP-1 level was determined by using RAT ENDOCRINE LINCOplex KIT (LINCO Research).

The test system of experiment [2] is plasma active GLP-1 level. Description: Plasma active GLP-1 level in glucose-loaded normal (DPP4-positive) rats, Example 2. The experiment is classed as in vivo, rat. The note with it: DPP4-positive male Fisher rats, mean ± SEM, n=6. The procedure: DPP4-positive male Fisher rats (purchased from Japan SLC, Inc.)
Each test compound was suspended in a solution of 0.5% carboxymethyl cellulose containing 0.2% Tween 80 at the doses indicated in Table 2, and administered to the test group orally at a volume of 5 mL/kg. The vehicle control group was orally administered a solution of 0.5% carboxymethyl cellulose containing 0.2% Tween 80 at a volume of 5 mL/kg. Just after the administration of the compound or vehicle, a glucose solution (2 g/kg/5 mL) was given orally.
Blood was collected from the caudal vein of an unanesthetized rat just before and 0.2, 0.5, 1, and 2 hours after glucose loading. Plasma active GLP-1 level was determined by using RAT ENDOCRINE LINCOplex KIT (LINCO Research).

Experiment [3] has as its system plasma active GLP-1 level. Description: Plasma active GLP-1 level in glucose-loaded normal (DPP4-positive) rats, Example 4. The experiment is classed as in vivo, rat. Particulars: Table 6, 10 mg/kg oral, DPP4-positive male Fisher rats, mean ± SEM, n=5 or 6.
Protocol: Each test compound was suspended in a solution of 0.5% carboxymethyl cellulose containing 0.2% Tween 80 at the doses indicated in Table 4, 5 or 6, and administered to the test group orally at a volume of 5 mL/kg. The vehicle control group was orally administered a solution of 0.5% carboxymethyl cellulose containing 0.2% Tween 80 at a volume of 5 mL/kg. Just after the administration of the compound or vehicle, a glucose solution (2 g/kg/5 mL) was given orally.
Blood was collected from the caudal vein of an unanesthetized rat at appropriate time described in the table. Plasma active GLP-1 level was determined by using RAT ENDOCRINE LINCOplex KIT (LINCO Research).
In experiment [4] the test system is plasma active GLP-1 level. Description: Plasma active GLP-1 level in glucose-loaded DPP4-deficient rats. The experiment is classed as in vivo, rat. The note with it: for GLP-1 concentration at each time point (hr) after oral administration: DPP4-deficient male Fisher rats, mean ± SEM, n=6. The procedure:
DPP4-deficient male Fisher rats (purchased from Charles River Japan, Inc.)
The test compound was suspended in a solution of 0.5% carboxymethyl cellulose containing 0.2% Tween 80 at the doses indicated in Table 1, and administered to the test group orally at a volume of 5 mL/kg. The vehicle control group was orally administered a solution of 0.5% carboxymethyl cellulose containing 0.2% Tween 80 at a volume of 5 mL/kg. Just after the administration of the compound or vehicle, a glucose solution (2 g/kg/5 ml) was given orally.
Blood was collected from the caudal vein of an unanesthetized rat just before and 0.5, 1, and 3 hours after glucose loading. Plasma active GLP-1 level was determined by using RAT ENDOCRINE LINCOplex KIT (LINCO Research).

Where [5] appears, read: 0 hr (just before), 3 mg/kg oral.
The mark [6] stands for this setting: 0 hr (just before), 10 mg/kg oral.
Setting [7] is: 0 hr (just before), 30 mg/kg oral.

For the molecule `N#C[C@@H]1CCCN1C(=O)CN[C@H]1CC[C@H](C(=O)N2CCOCC2)CC1` (relative stereo) [Compound B, (2S)-2-Cyano-1-[trans-4-(morpholinocarbonyl)cyclohexylamino]acetylpyrrolidine], the “GLP-1 concentration at each time point (hr) after oral administration” value (from here on “GLP-1 concentration at each time point”) stood at 18.4 ± 5.1 pM in experiment [1] (setting [5]); 30.0 ± 5.5 pM in experiment [1] (0.5 hr, 3 mg/kg oral); 46.5 ± 10.1 pM in experiment [1] (1 hr, 3 mg/kg oral); 25.0 ± 4.1 pM in experiment [1] (2 hr, 3 mg/kg oral); 7.2 ± 0.6 pM in experiment [2] (setting [5]); 9.8 ± 0.7 pM in experiment [2] (0.2 hr, 3 mg/kg oral). The “GLP-1 concentration at each time point” value in experiment [2] (0.5 hr, 3 mg/kg oral) amounted to 9.4 ± 0.4 pM; in experiment [2] (1 hr, 3 mg/kg oral), 8.3 ± 0.3 pM; in experiment [2] (2 hr, 3 mg/kg oral) it was 7.9 ± 0.5 pM.

As for `CN(C)C(=O)[C@H]1CC[C@H](NCC(=O)N2CCC[C@H]2C#N)CC1.O=S(=O)(O)c1ccccc1` (relative stereo) [Compound I, (2S)-2-cyano-1-[trans-4-(dimethylaminocarbonyl)cyclohexylamino]acetylpyrrolidine besylate], the “GLP-1 concentration at 2 hr after oral administration” value in experiment [3] is 4.0 ± 0.6 pM.

On to `OC[C@H]1O[C@@H](c2ccc(Cl)c(Cc3ccc(-c4cccc(F)n4)s3)c2)[C@H](O)[C@@H](O)[C@@H]1O` [Compound A, 1-(β-D-glucopyranosyl)-4-chloro-3-[5-(6-fluoro-2-pyridyl)-2-thienylmethyl]benzene], for which the “GLP-1 concentration at each time point” value in experiment [1] (setting [6]) was determined as 20.3 ± 9.6 pM; in experiment [1] (0.5 hr, 10 mg/kg oral), 42.6 ± 13.4 pM; in experiment [1] (1 hr, 10 mg/kg oral) it was 49.4 ± 12.0 pM; in experiment [1] (2 hr, 10 mg/kg oral) it was 30.9 ± 8.2 pM; in experiment [2] (setting [6]), 7.7 ± 0.4 pM; in experiment [2] (setting [7]) it was 5.9 ± 0.3 pM. Moreover, the “GLP-1 concentration at each time point” value came to 7.9 ± 0.2 pM in experiment [2] (0.2 hr, 10 mg/kg oral); 7.1 ± 0.3 pM in experiment [2] (0.2 hr, 30 mg/kg oral); 10.2 ± 1.0 pM in experiment [2] (0.5 hr, 10 mg/kg oral); 6.7 ± 0.4 pM in experiment [2] (0.5 hr, 30 mg/kg oral); 9.5 ± 0.6 pM in experiment [2] (1 hr, 10 mg/kg oral); 7.5 ± 0.9 pM in experiment [2] (1 hr, 30 mg/kg oral). Moreover, the “GLP-1 concentration at each time point” value is on record as 9.6 ± 0.8 pM in experiment [2] (2 hr, 10 mg/kg oral); 9.0 ± 0.9 pM in experiment [2] (2 hr, 30 mg/kg oral); 6.2 ± 1.3 pM in experiment [4] (setting [6]); 5.3 ± 0.7 pM in experiment [4] (setting [7]); 24.5 ± 4.7 pM in experiment [4] (0.5 hr, 10 mg/kg oral); 24.9 ± 3.8 pM in experiment [4] (0.5 hr, 30 mg/kg oral). Further, the “GLP-1 concentration at each time point” value in experiment [4] (1 hr, 10 mg/kg oral) turned out to be 31.3 ± 7.0 pM; in experiment [4] (1 hr, 30 mg/kg oral), 34.1 ± 5.7 pM; in experiment [4] (3 hr, 10 mg/kg oral), 21.9 ± 2.4 pM; in experiment [4] (3 hr, 30 mg/kg oral), 27.1 ± 2.1 pM. The “effect on plasma active GLP-1 level (in words)” value in experiment [4] (DPP4-deficient rats, summary of Table 1) was “markedly increased”.
